Several values for one entry are separate records, joined by “and”; a condition that tells them apart may be missing. Equal values may be shown once.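 Values below derive from 48-hour exposures of cells grown in 96-well plates, with endpoints linearly interpolated between the two concentrations bracketing the appropriate inhibition level. GI50 marks 50% less growth. TGI: total growth inhibition.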 Where a SMILES comes first, the peptide text is derived from it. The star is where a group is joined. Cbz = O=C(OCc1ccccc1)*; OBn = c1ccc(CO*)cc1
Assays:
Test in all cases: NCI-60 cell line screen, 48 h
[1] = system: CCRF-CEM leukemia
[2] = system: SNB-75 CNS
[3] = system: NCI-H23 lung
[4] = system: K-562 leukemia
[5] = system: HOP-92 NSCLC
[6] = system: SF-295 CNS
[7] = system: DU-145 prostate
[8] = system: HS 578T breast
[9] = system: PC-3 prostate
[10] = system: MDA-MB-435

Row | Structure (SMILES) | TGI [1] [µM] | TGI [2] | TGI [3] | TGI [4] | TGI [5] | TGI [6] | TGI [7] [µM] | TGI [8] [µM] | TGI [9] [µM] | TGI [10] [µM] | GI50 [1] [µM] | GI50 [2] [µM] | GI50 [3] [µM] | GI50 [4] [µM] | GI50 [5] [µM] | GI50 [6] [µM]
1 | c1ccc2c(c1)nc(NC1CCCC1)c1[nH]c(C3CCCC3)nc12 | 64.3 | > 100 µM | 32.7 µM | 41.4 µM | 37.2 µM | 32.8 µM |  |  |  |  |  |  |  |  |  | 
2 | c1ccc2c(c1)CCc1cc3cc4c(nc3nc1-2)-c1ccccc1CC4 | > 100 | > 100 µM | > 100 µM | > 100 µM |  | > 100 µM |  |  |  |  |  |  |  |  |  | 
3 | CC(=O)OC(OC(C)=O)n1cc(C=O)c2ccccc21 | > 100 |  | > 100 µM | > 100 µM |  | > 100 µM | > 100 | > 100 | > 100 |  |  |  |  |  |  | 
4 | CSc1c(C#N)c(=O)[nH]c2n[nH]c(C)c12 | > 100 | > 100 µM | > 100 µM | > 100 µM |  |  | > 100 | > 100 | > 100 | > 100 |  |  |  |  |  | 
5 | NCCNc1cccc2ccccc12 |  |  | > 100 µM |  | > 100 µM | > 100 µM |  |  |  |  |  |  |  |  |  | 
6 | CSC1=C(C#N)C(=O)N(c2ccc(C)cc2)C(=S)C1C#N (stereo not drawn) | > 100 | > 100 µM |  | > 100 µM | > 100 µM | > 100 µM |  | > 100 | > 100 | > 100 |  |  |  |  |  | 
7 | CC(C)(C)C(=O)ON1N=NC2C3CC(OCc4ccccc4)(OCc4ccccc4)C(O3)C21 (stereo not drawn) | 45.8 | 69.5 µM | 43.4 µM | 37 µM | 27.2 µM | 52.9 µM |  |  |  |  |  |  |  |  |  | 
8 | Cc1cccc(C2=NC(C)(C)C(C)(C)N=C2c2cccc(C)n2)n1 | > 100 | > 100 µM | > 100 µM | > 100 µM | > 100 µM | > 100 µM |  |  |  |  |  |  |  |  |  | 
9 | COC(=O)/C=C/c1cc(O)c2c(c1)[C@H](C(=O)OC)[C@@H](c1ccc(O)c(O)c1)O2 | 5.18 | 0.0711 µM | > 100 µM |  | > 94 µM | > 93.2 µM |  | 78.3 | > 100 |  |  |  |  |  |  | 
10 | COC(=O)C(Cc1ccc(O)cc1)NC(=O)C(CC(=O)OCc1ccccc1)NC(=O)OCc1ccccc1 (stereo not drawn) (Cbz-Asp(OBn)-Tyr-OMe; configuration not given here) | > 100 | 32.6 µM | 66.1 µM | > 100 µM | > 100 µM |  |  | 69.6 | 31.6 |  |  |  |  |  |  | 
11 | Cc1cccc(NC(=O)C(=O)C(C(=O)c2ccccc2F)C2OC(=O)c3ccccc32)c1Cl (stereo not drawn) | 83 | 64.2 µM | 81.8 µM | > 100 µM | > 100 µM | > 100 µM |  |  |  |  |  |  |  |  |  | 
12 | CCSC1=C(C)N(C=NC(C)(C)C)CC1 | > 100 | > 100 µM | > 100 µM | > 100 µM | > 100 µM | > 100 µM |  |  |  |  |  |  |  |  |  | 
13 | O=[Se](=O)c1ccccc1.O=[Se](=O)c1ccccc1.[Cu] | 62.7 | 37.6 µM | 30.1 µM | 47.4 µM | 37.3 µM | 29.8 µM |  |  |  |  | 7.98 | 22 | 13.5 | 13.4 | 21.4 | 16
14 | COC(=O)c1cc(C#N)[nH]c1-c1ccc(C)s1 | > 100 | > 100 µM | > 100 µM | > 100 µM | 82.1 µM | > 100 µM | > 100 |  | 46.4 | > 100 |  |  |  |  |  | 
15 | NC(=O)C#CC(N)=O |  | 79.8 µM and > 100 µM | 238 µM and 207 µM and > 100 µM | 15.1 µM and 96.6 µM and 24.3 µM | 5.51 µM and 35.7 µM | 26.2 µM and > 31.6 µM |  |  |  |  |  |  | 46.4 |  |  | 
16 | CCCCc1ccc(Nc2ncc3[nH]cnc3n2)cc1 | > 100 | 35.5 µM | 35.4 µM | > 100 µM | 49.7 µM | 38 µM | 30.6 | 33.9 |  | > 100 |  |  |  |  |  | 
17 | COC(=O)/C=C1\CCC(C)(C(=O)NS(=O)(=O)c2ccc(C)cc2)C1(C)C (stereo not drawn) | > 100 |  | > 100 µM | > 100 µM | > 100 µM | > 100 µM | > 100 |  | > 100 | > 100 |  |  |  |  |  | 
18 | CCOC(=O)CNC(=O)C(C)NC(=O)C(NC(=O)CC(c1ncc[nH]1)c1ncc[nH]1)C(C)CC (stereo not drawn) | > 100 | > 100 µM | > 100 µM | > 100 µM | > 100 µM | > 100 µM | > 100 | > 100 |  | > 100 |  |  |  |  |  | 
19 | COc1ccc2c(c1)N=C1CSC(c3ccccc3Cl)N1C2 (stereo not drawn) |  | 40.6 µM | 49.9 µM | 75.7 µM | 82.5 µM | 42.4 µM |  | > 100 | 58.5 | 27.7 |  |  |  |  |  | 
20 | O=C1Nc2cc([N+](=O)[O-])ccc2NC1/C(=N\Nc1ccccc1)C(O)c1cccc([N+](=O)[O-])c1 (stereo not drawn) | > 100 | > 100 µM | > 100 µM | > 100 µM | > 100 µM | > 100 µM |  |  |  |  |  |  |  |  |  | 
21 | COC(=O)n1c(=O)n(-c2ccccc2)c(=O)n1C(=O)OC | > 100 | > 100 µM | > 100 µM | > 100 µM |  |  | > 100 | > 100 | > 100 | > 100 |  |  |  |  |  | 
22 | CC(CO)C1C[C@H](O)[C@@]2(C)CC(=O)C=C(CO)[C@@H]2C1 (stereo partly drawn) |  | > 100 µM | > 100 µM |  | > 100 µM | > 100 µM | > 100 |  |  | > 100 |  |  |  |  |  | 
23 | N#C[S-].[Nd+3].c1ccc(-c2ccccn2)nc1.c1ccc(-c2ccccn2)nc1.c1ccc(-c2ccccn2)nc1 |  | 84.4 µM | 98.7 µM |  |  | 5.8 µM |  |  |  |  |  | 5.69 | 25.8 |  |  | 2.35
24 | COc1ccc(-c2c(N)n(-c3cccc(C(=O)O)c3)c(=O)c3cc([N+](=O)[O-])ccc23)cc1 | > 100 | > 100 µM | > 100 µM | > 100 µM |  | > 100 µM | > 100 | > 100 | > 100 | > 100 |  |  |  |  |  | 
25 | O=C(N/N=C/c1cc(Cl)cc(Cl)c1[O-])c1ccccc1O.O=C(N/N=C/c1cc(Cl)cc(Cl)c1[O-])c1ccccc1O.[Ni+2] |  | 7.48 µM | 1.71 µM | 17.4 µM | 1.79 µM | 1.24 µM |  |  |  |  |  |  | 0.456 |  | 0.495 | 
